Measured values: patent US20250064945A1 (Arvinas Operations, Inc., priority 2021, published 2025)
Counter-ions that a name gives are not always drawn.

Target: T1, recombinant human 6×His-tagged-BRM (bromodomain-only; aa. 1377-1486) (Homo sapiens, UniProt P51531)
T1 construct: (bromodomain-only; aa; 1377-1486; NP_620614); made in house; host or cells: Escherichia coli
Assay: AlphaLISA competitive BRM binding assay
Conditions: 7 nM 6×His-BRM, 20 nM biotinylated probe
Description: AlphaLISA Competitive BRM Binding Assay
Compounds were serially diluted in 100% DMSO in 3-fold increments. An intermediate compound plate was created at 10% DMSO in AlphaLISA buffer (50 mM Hepes, pH 7.5, 50 mM NaCl, […] Brij-35, 0.1 mg/mL BSA) and then […] of compound transferred from the intermediate plate into a white, 384-OptiPlate (Perkin Elmer, #6007290). A solution of protein (recombinant human 6×His-tagged-BRM (bromodomain-only; aa. 1377-1486; NP_620614) expressed in Escherichia coli) and biotinylated probe are mixed and pre-incubated for 10 minutes. Following incubation, […] of protein/probe solution is added to each well of the 384-OptiPlate, resulting in final assay concentration of 7 nM protein (6×His-BRM) and 20 nM biotinylated probe. Compound and protein/probe solution were incubated at room temperature for 10 minutes. […] of anti-His conjugated AlphaLISA acceptor beads (PerkinElmer #AL128M), diluted 100× in AlphaLISA buffer, were added to each well of the assay plate. This addition was followed by a 10-minute incubation at room temperature, in the dark. Lastly, […] of streptavidin donor beads (PerkinElmer #6760002), diluted 100× in AlphaLISA buffer, were added to each well of the assay plate. Final assay plate was incubated for 15 minutes before read, signal is stable up to 4 hours after donor bead addition.
Assay plates were read using an Envision® multimode microplate reader (PerkinElmer #2105-0010) using the Europium/615 nm emission filter. Data is reported as percent displacement, 100% binding is based on the average fluorescent count (FC) of zero compound column and 0% binding is based on the average fluorescent count (FC) of zero protein (His-BRM) column. Percent displacement is calculated based on the following equation:
((100% Binding FC−Compound Well FC)/(100% Binding FC−0% Binding FC))*100
Data is fit using a 4-parameter non-linear regression analysis in GraphPad Prism.

First: Cn1cc(-c2cnc3nc(-c4ccccc4O)cn3c2)cn1 [BRM16, 2-[6-(1-methylpyrazol-4-yl)imidazo[1,2-a]pyrimidin-2-yl] phenol]
Second: Cn1cc(-c2cn3cc(-c4ccccc4O)nc3nc2N)cn1 [BRM18, 2-[7-amino-6-(1-methylpyrazol-4-yl)imidazo[1,2-a]pyrimidin-2-yl]phenol]
The Kd of the first is higher: 0.5 to 2.5 µM for the first, under 0.5 µM for the second.

Compared with `Oc1ccn2cc(-c3ccccc3O)nc2n1` [BRM4, 2-(2-hydroxyphenyl) imidazo[1,2-a]pyrimidin-7-ol trifluoroacetate], `Nc1ccn2cc(-c3ccccc3O)nc2n1` [BRM2] is lower in Kd: at least 10 µM for the first, under 0.5 µM for the second.

`Oc1ccccc1-c1cn2cc(C#Cc3ccncc3)cnc2n1` [BRM11] and `Nc1nc2nc(-c3ccccc3O)cn2cc1C#Cc1ccncc1` [BRM5] cannot be ordered by Kd: at least 10 µM for the first, 2.5 to 10 µM for the second.

`CN1C2CCC1CN(c1cc(N)nc3nc(-c4ccccc4O)cn13)C2` [BRM10] and `CN1CCN(c2cc(N)nc3nc(-c4ccccc4O)cn23)CC1` [BRM7] cannot be ordered by Kd: at least 10 µM for the first, at least 10 µM for the second.

First: C#Cc1cc(N)nc2nc(-c3ccccc3O)cn12 [BRM6]
Second: C#Cc1cn2cc(-c3ccccc3O)nc2nc1N [BRM3]
The Kd of the first is higher: 2.5 to 10 µM for the first, under 0.5 µM for the second. The second binds more tightly here.

First: COC/C=C/c1cnc2nc(-c3ccccc3O)cn2c1 [BRM17, 2-[6-[(E)-3-methoxyprop-1-enyl]imidazo[1,2-a]pyrimidin-2-yl]phenol]
Second: COC/C=C/c1cn2cc(-c3ccccc3O)nc2nc1N [BRM19, 2-[7-amino-6-[(E)-3-methoxyprop-1-enyl]imidazo [1,2-a]pyrimidin-2-yl]phenol]
The Kd of the first is higher: 2.5 to 10 µM for the first, under 0.5 µM for the second. The second binds more tightly here.

First: CN1CCN(c2cnc3nc(-c4ccccc4O)cn3c2)CC1 [BRM14, 2-[6-(4-methylpiperazin-1-yl)imidazo[1,2-a]pyrimidin-2-yl]phenol]
Second: CN1CC2CCC(C1)N2c1cnc2nc(-c3ccccc3O)cn2c1 [BRM15, 2-[6-(3-methyl-3,8-diazabicyclo[3.2.1]octan-8-yl)imidazo[1,2-a]pyrimidin-2-yl] phenol]
The Kd of the first is lower: 0.5 to 2.5 µM for the first, 2.5 to 10 µM for the second. The first binds more tightly here.

`Cn1cc(-c2cc(N)nc3nc(-c4ccccc4O)cn23)cn1` [BRM8] and `Nc1cc(C#Cc2ccncc2)n2cc(-c3ccccc3O)nc2n1` [BRM9] cannot be ordered by Kd: at least 10 µM for the first, at least 10 µM for the second.

Going from `COCCOCC#Cc1cn2cc(-c3ccccc3O)nc2nc1N` [BRM13] to `C#Cc1cnc2nc(-c3ccccc3O)cn2c1` [BRM12], the Kd rises from under 0.5 µM to at least 10 µM. The first binds more tightly here.

Work on `Oc1ccccc1-c1cn2cccnc2n1` [BRM1] yielded a Kd of 0.5 to 2.5 µM.
